{
  "source": "patent US20240196889A1",
  "about": "“USE OF DI- AND TRI[…] ACIDS IN THE PREVENTION OF BIOFILM FORMATION” (priority 2020, published 2024)",
  "key": {"[1]": {"test_system": "S. Typhimurium ATCC 14028", "assay": "Petri dish biofilm assay (CFU)", "format": "cell-based, Salmonella enterica serovar Typhimurium", "details": "100 μM, 48 h, 25° C.", "description": "ONCs of S. Typhimurium ATCC 14028 were normalized to an OD595 of 3.2 and diluted 1/100 in a small (60 mm Ø) glass Petri dishes containing 10 ml of 1/20 TSB to which a final concentration of 100 μM agaric or the corresponding amount of DMSO was added. Around 12*10^7 ml^−1 cells were inoculated and incubated under static conditions at 25° C. for 48 h. Afterwards, the liquid above the biofilms was poured off and the biofilms were scraped off the bottom of the plate in 1 ml of PBS, passed through a syringe (25 G) and vortexed to break down the biofilm structure and ensure an homogenous suspension during dilution [Hermans et al. (2011). Journal of microbiological methods 84, 467-478]. The number of colony forming units (CFU) of biofilms was determined by plating."}, "[2]": {"test_system": "S. Typhimurium SL1344 (S1), S. Typhimurium ATCC14028 (S2) and E. coli MG1655 (E1)", "assay": "Mixed-species biofilm assay (CFU)", "format": "cell-based, Salmonella Typhimurium and E. coli", "from_the_text": "In situ, biofilms are typically complex communities consisting of various bacterial strains and species [Elias & Banin (2012) FEMS Microbiol Rev 36, 990-1004; Burmølle et al. (2014) Trends Microbiol 22, 84-91; Giaouris et al. (2015) Front Microbiol 6, Article 841; Mitri & Richard Foster (2013) Communities. Annual Review of Genetics 47, 247-273]. […] Microbial ecology 68, 146-154]. Hereto, a a previously characterized model community was utilized consisting of two Salmonella and one E. coli strain (S. Typhimurium SL1344 (S1), S. Typhimurium ATCC14028 (S2) and E. coli MG1655 (E1)). […] The reduced biofilm productivity of the mixed-species community is mainly due to the inhibition of the S2 strain (FIG. 6B). The lack of […] inhibition in mixed-species conditions is possibly due to agaric acid weakening the competitive interactions experienced by S1 (FIG. 6C). […] Consequently, […] detected the damage imposed by competition via its stress response systems and induces a competitive response. […] Therefore, it was subsequently explored whether agaric acid can interfere with the increased tolerance in mixed-species conditions by weakening the competition and preventing the induction of this competitive response.\nONCs of S1, S2 and E1 were normalized to an OD595 of 3.2 and added to a small (60 mm Ø) glass Petri dishes containing 10 ml of 1/20 TSB. The three strain were inoculated in a 1:1:1 ratio and incubated under static conditions at 25° C. for 48 h. The same total number of cells was inoculated in mono- and mixed-species conditions (˜12*10^7 cells ml^−1). Afterwards, the liquid above the biofilms was poured off and the biofilms were scraped off the bottom of the plate in 1 ml of PBS, passed through a syringe (25 G) and vortexed to break down the biofilm structure and ensure an homogenous suspension during dilution. The number of colony forming units (CFU) of biofilms was determined by plating. To differentiate between the strains, S1 was labelled with constitutive gfpmut3 on a plasmid, while S2 and E1 were labelled with plasmid-encoded constitutive dsRed.T4. […]"}, "Salmonella": {"test_system": "Salmonella", "assay": "Minimal inhibitory concentration (MIC) assay", "format": "cell-based, Salmonella enterica serovar Typhimurium", "details": "TSB 1/20, 24 h, 25° C., same conditions as the biofilm assay", "description": "MIC values were determined in a 96-well plate. Two-fold serial dilutions of agaric acid or DMSO were prepared in 100 μl of TSB 1/20 and 100 μL of the inoculum diluted 1/100 in TSB 1/20 was added. The plate was covered with a Breathable Sealing Membrane and a lid and incubated for 24 h at 25° C., shaking at 200 rpm."}, "[3]": {"test_system": "S. Typhimurium ATCC 14028", "assay": "Microscopic analysis of fluorescently labelled biofilms", "format": "cell-based, Salmonella enterica serovar Typhimurium", "details": "100 μM, 48 h", "description": "ONCs of S. Typhimurium ATCC 14028 containing the pFPV25.1 plasmid encoding for constitutive GFPmut3 productions were normalized to an an OD595 of 3.2 and 20 μl was added to a glass bottom microwell dishes (35 mm Ø petri dish, 20 mm Ø microwell) containing 2 ml 1/20 TSB and 100 μg ml^−1 of ampicillin and a final concentration of 100 μM agaric or the corresponding amount of DMSO. Around 12*10^7 ml^−1 cells were inoculated and incubated under static conditions at 25° C. for 48 h. After incubation, the planktonic phase was gently poured off and the biofilm was washed with 1 ml PBS. Biofilms were visualized with […]"}, "E. coli TG1": {"test_system": "E. coli TG1", "assay": "Antibiofilm assay (Calgary biofilm device)", "format": "cell-based, Escherichia coli", "description": "A static peg assay for the prevention of bacterial biofilm formation was used as described previously. A lid carrying 96 polystyrene pegs was fitted into a microtiter plate with a peg hanging into each well. Two-fold serial dilutions of the compounds in 100 μl liquid broth per well were prepared in the microtiter plate. Subsequently, an overnight culture was diluted 1:100 into the respective liquid broth, and 100 μl (˜10^6 cells) was added to each well of the microtiter plate, resulting in a total amount of 200 μl medium per well. After placing the lid on the microtiter plate, samples containing Salmonella, Pseudomonas or E. coli were incubated statically in TSB 1/20 for 48 h at 25° C., whereas S. aureus was incubated in undiluted TSB at 37° C. for 48 h. After incubation, the lid was removed from the microtiter plate and liquid culture was transferred to a new microtiter plate prior to determining the prior to determining the planktonic growth in each well via OD600 measurements using a Synergy MX multimode reader (Biotek, Winooski, VT). The pegs were washed once in 200 μl PBS and the remaining attached bacteria were stained for 30 min with 200 μl 0.1% crystal violet in an isopropanol-methanol-PBS solution (1:1:18). […] The OD570 of each well was measured using a Synergy MX multimode reader. Data was analysed using the GraphPad Prism 6 software."}, "motA deletion mutant": {"test_system": "motA deletion mutant", "assay": "Biofilm formation of motA deletion mutant", "format": "cell-based, Salmonella", "details": "addition of agaric acid to the deletion mutant"}},
  "data": [
    {"smiles": "CCCCCCCCCCCCCCCCC(C(=O)O)C(O)(CC(=O)O)C(=O)O", "note": "(stereo not drawn) [Agaric acid, 2-hydroxynonadecane-1,2,3-tricarboxylic acid]", "values": [
      {"measurement": "number of cells (CFU) attaching to bottom of glass petri dish", "setting": "[1]", "value": "significantly inhibits the number of Salmonella cells attaching to the surface"},
      {"measurement": "competition experienced by S1 in presence of S2 and E1", "setting": "[2]", "value": "weakens the competition experienced by S1"},
      {"measurement": "biofilm formation of S2 strain in the mixed-species community", "setting": "[2]; 100 μM", "value": "significantly inhibited"},
      {"measurement": "number of biofilm cells of mixed-species consortium attached to abiotic surface", "setting": "[2]; S1, S2 and E1 1:1:1, 48 h, 25° C.", "value": "significantly reduced the number of biofilm cells"},
      {"measurement": "MIC", "setting": "Salmonella", "value": 8, "unit": "mM"},
      {"measurement": "biofilm density by microscopy", "setting": "[3]", "value": "less dense compared to the control"},
      {"measurement": "planktonic growth (OD600)", "setting": "E. coli TG1", "value": "unaffected, except for an increase at the highest concentration"},
      {"measurement": "concentration at which significant biofilm inhibition already occurred", "setting": "E. coli TG1; crystal violet staining", "value": 12.5, "unit": "µM"},
      {"measurement": "biofilm formation of motA deletion mutant", "setting": "motA deletion mutant", "value": "did not further reduce biofilm formation"}
    ]}
  ]
}
